# Patent publication US10005774B2, “Syk inhibitors” (Gilead Sciences, Inc., priority 2013, dated 2018)
# Target: Syk (Homo sapiens, UniProt P43405)
# Test: High Throughput Syk Biochemical Assay (KinEASE TR-FRET)
# Conditions: TABLE D, 20 μM ATP, 1 μM biotinylated peptide, 0.015 nM Syk, 30 min at room temperature, read-out: IC50
# Method in brief: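 Compounds in DMSO dilution series were tested against Syk, which phosphorylates an XL665-tagged peptide. The phosphoproduct was bound by Eu-labelled phosphotyrosine antibody in a two-step endpoint format.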
row,SMILES,IC50 [nM]
1,C[C@@H](Oc1cc(-c2ccc(N3CCN(C4CCOCC4)CC3)cn2)cc2ncsc12)[C@H]1CNC(=O)C1 (stereo in doubt) [(R)-4-((R)-1-((5-(5-(4-(tetrahydro-2H-pyran-4-yl)piperazin-1-yl)pyridin-2-yl)benzo[d]thiazol-7-yl)oxy)ethyl)pyrrolidin-2-one],2.62
2,"C[C@@H](Oc1nc(-c2cnn(C3CCC3)c2)cc2ncn(C)c12)[C@H]1CNC(=O)C1 [(R)-4-((R)-1-(6-(1-cyclobutyl-1H-pyrazol-4-yl)-3-methyl-3H-imidazo[4,5-c]pyridin-4-yloxy)ethyl)pyrrolidin-2-one]",7.62
3,"C[C@@H](Oc1nc(C2=CCCCC2)cc2ncn(C)c12)[C@H]1CNC(=O)C1 [(R)-4-((R)-1-(6-cyclohexenyl-3-methyl-3H-imidazo[4,5-c]pyridin-4-yloxy)ethyl)pyrrolidin-2-one]",124
4,"C[C@@H](Oc1nc(-c2cnn(C(C)(C)C)c2)cc2ncn(C)c12)[C@H]1CNC(=O)C1 [(R)-4-((R)-1-(6-(1-tert-butyl-1H-pyrazol-4-yl)-3-methyl-3H-imidazo[4,5-c]pyridin-4-yloxy)ethyl)pyrrolidin-2-one]",4.9
5,"COc1cc(-c2cc3ncn(C)c3c(O[C@H](C)[C@H]3CNC(=O)C3)n2)ccc1C#N [2-methoxy-4-(3-methyl-4-((R)-1-((R)-5-oxopyrrolidin-3-yl)ethoxy)-3H-imidazo[4,5-c]pyridin-6-yl)benzonitrile]",74.2
6,"C[C@@H](Oc1nc(-c2ccc(C#N)cc2)cc2ncn(C)c12)[C@H]1CNC(=O)C1 [4-(3-methyl-4-((R)-1-((R)-5-oxopyrrolidin-3-yl)ethoxy)-3H-imidazo[4,5-c]pyridin-6-yl)benzonitrile]",28.4
7,"C[C@@H](Oc1nc(-c2cnn3ccccc23)cc2ncn(C)c12)[C@H]1CNC(=O)C1 [(R)-4-((R)-1-(3-methyl-6-(pyrazolo[1,5-a]pyridin-3-yl)-3H-imidazo[4,5-c]pyridin-4-yloxy)ethyl)pyrrolidin-2-one]",12.7
8,"C[C@@H](Oc1nc(-c2ccc(N3CCN(C4COC4)CC3)cc2)cc2ncn(C)c12)[C@H]1CNC(=O)C1 [(R)-4-((R)-1-(3-methyl-6-(4-(4-(oxetan-3-yl)piperazin-1-yl)phenyl)-3H-imidazo[4,5-c]pyridin-4-yloxy)ethyl)pyrrolidin-2-one]",8.21
9,"COc1ccc(-c2cc(O[C@H](C)[C@H]3CNC(=O)C3)c3scnc3c2)nc1OC (stereo in doubt) [(R)-4-((R)-1-((5-(5,6-dimethoxypyridin-2-yl)benzo[d]thiazol-7-yl)oxy)ethyl)pyrrolidin-2-one]",0.689
10,"C[C@@H](Oc1nc(-c2ccc(N3CCNCC3)cc2)cc2ncn(C)c12)[C@H]1CNC(=O)C1 [(R)-4-((R)-1-(3-methyl-6-(4-(piperazin-1-yl)phenyl)-3H-imidazo[4,5-c]pyridin-4-yloxy)ethyl)pyrrolidin-2-one]",8.28
11,"C[C@@H](Oc1nc(-c2cc[nH]c(=O)c2)cc2ncn(C)c12)[C@H]1CNC(=O)C1 [4-(3-methyl-4-((R)-1-((R)-5-oxopyrrolidin-3-yl)ethoxy)-3H-imidazo[4,5-c]pyridin-6-yl)pyridin-2(1H)-one]",97.5
12,"CCn1cnc2cc(-c3ccc(OC)c(OC)c3)nc(O[C@H](C)[C@H]3CNC(=O)C3)c21 [(R)-4-((R)-1-(6-(3,4-dimethoxyphenyl)-3-ethyl-3H-imidazo[4,5-c]pyridin-4-yloxy)ethyl)pyrrolidin-2-one]",3.05
13,"COc1ccc(-c2cc3ncn(CC(F)(F)F)c3c(O[C@H](C)[C@H]3CNC(=O)C3)n2)cc1OC [(R)-4-((R)-1-(6-(3,4-dimethoxyphenyl)-3-(2,2,2-trifluoroethyl)-3H-imidazo[4,5-c]pyridin-4-yloxy)ethyl)pyrrolidin-2-one]",51.3

# The next lines start with the values.
row,IC50 [nM],SMILES
1,3.14,"CC(=O)N1CCN(c2ccc(-c3cc4ncn(C)c4c(O[C@H](C)[C@H]4CNC(=O)C4)n3)cc2)CC1 [(R)-4-((R)-1-(6-(4-(4-acetylpiperazin-1-yl)phenyl)-3-methyl-3H-imidazo[4,5-c]pyridin-4-yloxy)ethyl)pyrrolidin-2-one]"
2,27.7,"C[C@@H](Oc1nc(-c2ccc(S(C)(=O)=O)cc2)cc2ncn(C)c12)[C@H]1CNC(=O)C1 [(R)-4-((R)-1-(3-methyl-6-(4-(methylsulfonyl)phenyl)-3H-imidazo[4,5-c]pyridin-4-yloxy)ethyl)pyrrolidin-2-one]"
3,42.5,"C[C@@H](Oc1nc(-c2cccc(S(C)(=O)=O)c2)cc2ncn(C)c12)[C@H]1CNC(=O)C1 [(R)-4-((R)-1-(3-methyl-6-(3-(methylsulfonyl)phenyl)-3H-imidazo[4,5-c]pyridin-4-yloxy)ethyl)pyrrolidin-2-one]"
4,1.82,C[C@@H](Oc1cc(-c2ccc(N3CCOCC3)cc2)cc2ncsc12)[C@H]1CNC(=O)C1 (stereo in doubt) [(R)-4-((R)-1-((5-(4-morpholinophenyl)benzo[d]thiazol-7-yl)oxy)ethyl)pyrrolidin-2-one]
5,16.8,"C[C@@H](Oc1nc(-c2ccc3cnn(C)c3c2)cc2ncn(C)c12)[C@H]1CNC(=O)C1 [(R)-4-((R)-1-((3-methyl-6-(1-methyl-1H-indazol-6-yl)-3H-imidazo[4,5-c]pyridin-4-yl)oxy)ethyl)pyrrolidin-2-one]"
6,0.699,C[C@@H](Oc1cc(-c2cnn(C3CCOCC3)c2)cc2ncsc12)[C@H]1CNC(=O)C1 (stereo in doubt) [(R)-4-((R)-1-((5-(1-(tetrahydro-2H-pyran-4-yl)-1H-pyrazol-4-yl)benzo[d]thiazol-7-yl)oxy)ethyl)pyrrolidin-2-one]

# Same assay, conditions: table 'ALL NEW COMPOUNDS IN 2014', 20 μM ATP, 1 μM biotinylated peptide, 0.015 nM Syk, 30 min at room temperature, read-out: Syk IC50
row,SMILES,IC50 [nM]
1,"C[C@@H](Oc1nc(-c2ccc(N3CC4CC(C3)N4C3COC3)cc2)cc2ncn(C3CC3)c12)[C@H]1CNC(=O)C1 [(4R)-4-((1R)-1-((3-cyclopropyl-6-(4-(6-(oxetan-3-yl)-3,6-diazabicyclo[3.1.1]heptan-3-yl)phenyl)-3H-imidazo[4,5-c]pyridin-4-yl)oxy)ethyl)pyrrolidin-2-one]",2.69
2,"Cc1cc(-c2cc3ncn(C4CC4)c3c(O[C@H](C)[C@H]3CNC(=O)C3)n2)sn1 [(R)-4-((R)-1-((3-cyclopropyl-6-(3-methylisothiazol-5-yl)-3H-imidazo[4,5-c]pyridin-4-yl)oxy)ethyl)pyrrolidin-2-one]",2.27
3,"C[C@@H](Oc1nc(-c2cnc(C(F)(F)F)s2)cc2ncn(C3CC3)c12)[C@H]1CNC(=O)C1 [(R)-4-((R)-1-((3-cyclopropyl-6-(2-(trifluoromethyl)thiazol-5-yl)-3H-imidazo[4,5-c]pyridin-4-yl)oxy)ethyl)pyrrolidin-2-one]",67.7
4,"C[C@@H](Oc1nc(-c2ccc3c(c2)N(C)C(=O)OC3(C)C)cc2ncn(C)c12)[C@H]1CNC(=O)C1 [1,4,4-trimethyl-7-(3-methyl-4-((R)-1-((R)-5-oxopyrrolidin-3-yl)ethoxy)-3H-imidazo[4,5-c]pyridin-6-yl)-1H-benzo[d][1,3]oxazin-2(4H)-one]",2.5
5,"Cc1nc(-c2cc(O[C@H](C)[C@H]3CNC(=O)C3)c3c(c2)ncn3C2CC2)sc1C [(R)-4-((R)-1-((1-cyclopropyl-5-(4,5-dimethylthiazol-2-yl)-1H-benzo[d]imidazol-7-yl)oxy)ethyl)pyrrolidin-2-one]",1.41
6,C[C@@H](Oc1cc(-c2cnc(C3CCOCC3)s2)cc2ncn(C3CC3)c12)[C@H]1CNC(=O)C1 [(R)-4-((R)-1-((1-cyclopropyl-5-(2-(tetrahydro-2H-pyran-4-yl)thiazol-5-yl)-1H-benzo[d]imidazol-7-yl)oxy)ethyl)pyrrolidin-2-one],0.54
7,"C[C@@H](Oc1nc(-c2ccc3c(cnn3CC(F)F)c2)cc2ncn(C3CC3)c12)[C@H]1CNC(=O)C1 [(R)-4-((R)-1-((3-cyclopropyl-6-(1-(2,2-difluoroethyl)-1H-indazol-5-yl)-3H-imidazo[4,5-c]pyridin-4-yl)oxy)ethyl)pyrrolidin-2-one]",1.81
8,"C[C@@H](Oc1nc(-c2ccc3c(c2)NC(=O)OC3(C)C)cc2ncn(C)c12)[C@H]1CNC(=O)C1 [4,4-dimethyl-7-(3-methyl-4-((R)-1-((R)-5-oxopyrrolidin-3-yl)ethoxy)-3H-imidazo[4,5-c]pyridin-6-yl)-1H-benzo[d][1,3]oxazin-2(4H)-one]",0.935
9,C[C@@H](Oc1cc(-c2ccc(N3CCN(C4COC4)CC3)c(F)c2)cc2ncn(C3CC3)c12)[C@H]1CNC(=O)C1 [(R)-4-((R)-1-((1-cyclopropyl-5-(3-fluoro-4-(4-(oxetan-3-yl)piperazin-1-yl)phenyl)-1H-benzo[d]imidazol-7-yl)oxy)ethyl)pyrrolidin-2-one],3.08

# The next lines start with the values.
row,IC50 [nM],SMILES
1,16.7,Cc1nc(-c2cc(O[C@H](C)[C@H]3CNC(=O)C3)c3c(c2)ncn3C2CC2)cs1 [(R)-4-((R)-1-((1-cyclopropyl-5-(2-methylthiazol-4-yl)-1H-benzo[d]imidazol-7-yl)oxy)ethyl)pyrrolidin-2-one]
2,7.38,C[C@@H](Oc1cc(-c2ccc(N3CCN(C4COC4)CC3)nc2)cc2ncn(C3CC3)c12)[C@H]1CNC(=O)C1 [(R)-4-((R)-1-((1-cyclopropyl-5-(6-(4-(oxetan-3-yl)piperazin-1-yl)pyridin-3-yl)-1H-benzo[d]imidazol-7-yl)oxy)ethyl)pyrrolidin-2-one]
3,1.73,C[C@@H](Oc1cc(-c2cnn(CC(C)(C)O)c2)cc2ncn(C3CC3)c12)[C@H]1CNC(=O)C1 [(R)-4-((R)-1-((1-cyclopropyl-5-(1-(2-hydroxy-2-methylpropyl)-1H-pyrazol-4-yl)-1H-benzo[d]imidazol-7-yl)oxy)ethyl)pyrrolidin-2-one]
4,7.43,"Cc1ccc(-c2cc3ncn(C4CC4)c3c(O[C@H](C)[C@H]3CNC(=O)C3)n2)s1 [(R)-4-((R)-1-((3-cyclopropyl-6-(5-methylthiophen-2-yl)-3H-imidazo[4,5-c]pyridin-4-yl)oxy)ethyl)pyrrolidin-2-one]"
5,1.3,"C[C@@H](Oc1nc(-c2ccc(N3CCn4cnnc4C3)cc2)cc2ncn(C3CC3)c12)[C@H]1CNC(=O)C1 [(R)-4-((R)-1-((3-cyclopropyl-6-(4-(5,6-dihydro-[1,2,4]triazolo[4,3-a]pyrazin-7(8H)-yl)phenyl)-3H-imidazo[4,5-c]pyridin-4-yl)oxy)ethyl)pyrrolidin-2-one]"
